The test system of data set [1] is ST486. The data set is described as follows: Antiproliferative activity against human ST486 cells after 48 to 72 hrs by MTT assay. The data set is classed as functional, cell-based. Background: Tetrazolium dyes change colour on reduction, which living cells bring about.
The nature of data set [2]: Antitumor activity against mouse LL/2 cells allografted in Lewis mouse assessed as decrease in lung metastasis number at 4 mg/ml, ip administered daily 24 hrs post implantation (reference value: 11.8 +/- 7.1 number). The data set is classed as functional, Lewis lung carcinoma.
Data set [3] has as its system Mus musculus. The data set is described as follows: Toxicity in Lewis mouse allografted with mouse LL/2 cells assessed as change in body weight at 4 mg/ml, ip administered daily 24 hrs post implantation measured on day 18 (reference value: 22.7 +/- 0.2 g). The data set is classed as organism-based. As to conditions: in vivo.
Data set [4] is described as follows: Antitumor activity against mouse LL/2 cells allografted in Lewis mouse assessed as change in tumor weight at 4 mg/ml, ip administered daily 24 hrs post implantation (reference value: 7.1 +/- 1.1 g). It is filed as functional, Lewis lung carcinoma.
The subject of data set [5] is HUVEC. In words: Antiproliferative activity against human HUVEC after 48 to 72 hrs by MTT assay. It is filed as functional, cell-based.
The subject of data set [6] is LoVo. In words: Antiproliferative activity against human LoVo cells after 48 to 72 hrs by MTT assay. The data set is classed as functional, cell-based.
The subject of data set [7] is DLD-1. In words: Antiproliferative activity against human DLD1 cells after 48 to 72 hrs by MTT assay. The data set is classed as functional, cell-based.
The test system of data set [8] is DLD-1. The data set is described as follows: Selectivity ratio of IC50 for human DLD1 cells to IC50 for HUVEC. It is filed as functional.
Data set [9] can be described thus: Antitumor activity against mouse LL/2 cells allografted in Lewis mouse assessed as decrease in lung metastasis number at 5 ug/ml, ip administered daily 24 hrs post implantation (reference value: 11.8 +/- 7.1 number). It is filed as functional, Lewis lung carcinoma.
The test system of data set [10] is HUVEC. In words: Antiangiogenic activity against HUVEC assessed as inhibition of capillary tube formation at 20 uM after 24 hrs by Matrigel assay. The data set is classed as functional, cell-based. As to conditions: Homo sapiens.
Data set [11] can be described thus: Antitumor activity against mouse LL/2 cells allografted in Lewis mouse assessed as change in tumor weight at 5 ug/ml, ip administered daily 24 hrs post implantation (reference value: 7.1 +/- 1.1 g). It is filed as functional, Lewis lung carcinoma.
Data set [12] relates to Mus musculus. The data set is described as follows: Toxicity in Lewis mouse allografted with mouse LL/2 cells assessed as change in body weight at 5 ug/ml, ip administered daily 24 hrs post implantation measured on day 18 (reference value: 22.7 +/- 0.2 g). The data set is classed as organism-based. As to conditions: in vivo.
The test system of data set [13] is HUVEC. The data set is described as follows: Antiangiogenic activity against HUVEC assessed as inhibition of capillary tube formation at 20 uM after 48 hrs by Matrigel assay. The data set is classed as functional, cell-based. As to conditions: Homo sapiens.
For data set [14], the system named is LoVo. In words: Selectivity ratio of IC50 for human LoVo cells to IC50 for HUVEC. The data set is classed as functional.

Data on eight molecules can be found in ChEMBL document CHEMBL1938265, “Synthesis and biological evaluation of novel indolocarbazoles with anti-angiogenic activity” (Eur J Med Chem, 2012).

Structures are written as SMILES. The source made the active and inactive calls. The rule behind the calls is not given here.

The IC50 is the concentration at which inhibition is half-maximal. Low values mean higher potency, high ones lower potency. As for `CN[C@@H]1C[C@H]2O[C@@](C)([C@@H]1OC)n1c3ccccc3c3c4c(c5c6ccccc6n2c5c31)C(=O)NC4` [STAUROSPORINE], half-maximal inhibition in data set [1] (IC50) required 7 nM.
Turning to `Cc1ccc(C(=O)Nc2ccc(S(=O)(=O)O)c3cc(S(=O)(=O)O)cc(S(=O)(=O)O)c23)cc1NC(=O)c1cccc(NC(=O)Nc2cccc(C(=O)Nc3cc(C(=O)Nc4ccc(S(=O)(=O)O)c5cc(S(=O)(=O)O)cc(S(=O)(=O)O)c45)ccc3C)c2)c1` [SURAMIN], the results for the Activity in data set [2], in data set [3] and in [4] were 5, 25.5 g and 5.9 g, respectively.
In the case of `O=C1NC(=O)c2c1c1c3ccccc3[nH]c1c1c2c2ccccc2n1CCOCCO`, the IC50 in data set [5] came to 10000 nM; in data set [6], 4000 nM; in [7] it was 2000 nM; in data set [1], 100 nM.
Take `CN(C)CCOCCn1c2ccccc2c2c3c(c4c5ccccc5[nH]c4c21)C(=O)NC3=O`: the IC50 in data set [5] and in [1] was 2000 nM each time.
As for `CN(C)CCOCCn1c2ccccc2c2c3c(c4c5ccccc5[nH]c4c21)C(=O)N(CCN(C)C)C3=O.Cl.Cl`, the “Ratio IC50” value in [8] and in [14] was 200 throughout. For the same molecule, the Activity was found to be 9 in data set [9], 7.6 g in [11] and 28.5 g in data set [12]. The result in data set [10] and in data set [13] was Active. For the same molecule, the IC50 in data set [5] amounted to 100 nM; in data set [6] it was 20000 nM; in data set [7] it was 20000 nM; in data set [1], 4000 nM.
`CN(C)CCN1C(=O)c2c(c3c4ccccc4[nH]c3c3[nH]c4ccccc4c23)C1=O`: the figures for the Activity in data set [9], in [11] and in data set [12] were 9.4, 7.3 g and 27.29 g, respectively. Further, the result in data set [10] and in [13] was Active. Besides, the IC50 in data set [5] turned out to be 7000 nM; in data set [6], 500 nM; in data set [7], 3000 nM; in [1] it was 1000 nM.
As for `CNCCOCCn1c2ccccc2c2c3c(c4c5ccccc5[nH]c4c21)C(=O)N(CCN(C)C)C3=O`, the IC50 in data set [5] was found to be 300 nM; in data set [6], 6000 nM; in [7] it was 7000 nM; in [1], 3000 nM.
The corresponding values for `CN(C)CCN1C(=O)c2c(c3c4ccccc4n(CCOCCO)c3c3[nH]c4ccccc4c23)C1=O` are 100 nM, 300 nM, 20000 nM and 3000 nM.
